Test results taken from patent publication US12171757B2, “Crenolanib for treating FLT3 mutated proliferative disorders” (Arog Pharmaceuticals, Inc., priority 2013, dated 2024).

Tests used:
[1] = tested on: relapsed/refractory AML patient with a de novo FLT3-ITD mutation and acquired FLT3-D835 TKD mutation; assay: Crenolanib besylate single agent therapy, Example 1 patient, clinical trial NCT01522469; type: in vivo, human
Source text: (§1) Response criteria for AML clinical trials are adapted from the International Working Group for AML. See Cheson et al. Revised Recommendations of the International Working Group for Diagnosis, Standardization of Response Criteria, Treatment Outcomes, and Reporting Standards for Therapeutic Trials in Acute Myeloid Leukemia. J Clin Oncol. 2003; 21: 4642-4649. Responders are patients who obtain a Complete Response (CR), Complete Response with incomplete blood count recovery (CRi), or Partial Remission (PR). Briefly, criteria are as follows:
To overcome resistance to prior therapy, the patient was provided single agent oral crenolanib besylate on a clinical trial for relapsed or refractory AML patients with a FLT3-D835 TKD mutation (NCT01522469). […] The patient began treatment with 100 mg of oral crenolanib three times daily. […] The patient discontinued crenolanib therapy and underwent allogeneic stem cell transplant.

[2] = tested on: relapsed/refractory AML patient with a de novo FLT3-ITD mutation and acquired FLT3-D835 TKD mutation; assay: Crenolanib besylate single agent therapy, Example 2 patient, clinical trial NCT01522469; type: in vivo, human
Source text: as §1
To overcome resistance to prior therapy with FLT3 tyrosine kinase inhibitor X, the patient was provided single agent oral crenolanib besylate on a clinical trial for relapsed or refractory AML patients with a FLT3-D835 mutation (NCT01522469). At baseline, the patient presented with 91% bone marrow blasts and 4800 units/uL of absolute circulating peripheral blood blasts. The patient began treatment with 80 mg of oral crenolanib three times daily. […] The patient discontinued crenolanib therapy and underwent allogeneic stem cell transplant.

[3] = tested on: heavily pretreated relapsed/refractory AML patient with acquired FLT3-ITD and FLT3-D835 TKD mutations; assay: Crenolanib besylate monotherapy, Example 3 patient, phase II clinical trial NCT01522469; type: in vivo, human
Source text: as §1
A 59.2 kg person diagnosed with AML December 2011. Following initial diagnosis the patient was treated with 7+3 induction chemotherapy, followed by consolidation therapy with 1 cycle of high dose cytarabine. Five months later the patient underwent autologous stem cell transplantation with etoposide and busulfan conditioning. […] The patient was treated with 100 mg of crenolanib besylate three times daily. […] The patient discontinued crenolanib therapy to undergo allogeneic stem cell transplantation conditioning. The patient discontinued crenolanib therapy and underwent allogeneic stem cell transplant.

[4] = tested on: relapsed/refractory AML patient with an acquired FLT3-ITD mutation; assay: Crenolanib besylate monotherapy, Example 4 patient, phase II clinical trial NCT01522469; type: in vivo, human
Source text: as §1
A 60.6 kg person diagnosed with FLT3-negative AML January 2012. […] The patient was then treated with 4 cycles of high dose cytarabine consolidation therapy. […] The patient was treated with 100 mg of crenolanib besylate three times daily. […] The patient discontinued crenolanib therapy and underwent allogeneic stem cell transplant.

[5] = tested on: refractory or relapsed acute leukemias; details: patients with refractory or relapsed acute leukemias; cited from earlier work
[6] = day 21 on study drug, 80 mg oral three times daily
[7] = day 15 on study drug, 100 mg three times daily
[8] = day 29 on study drug, 100 mg three times daily
[9] = day 33 on study drug, 100 mg three times daily
[10] = day 58 on study drug, 100 mg three times daily

CC1(COc2ccc3c(c2)ncn3-c2ccc3cccc(N4CCC(N)CC4)c3n2)COC1 [Crenolanib, 4-Piperidinamine, 1-[2-[5-[(3-methyl-3-oxetanyl)methoxy]-1H-benzimidazol-1-yl]-8-quinolinyl]]
Clinical response (bone marrow biopsy) ([1]; after 29 days of therapy, 100 mg, decreased to 80 mg, oral three times daily): complete remission (CR)
Bone Marrow Blast (%) ([1]; day 0 on study drug (baseline)): 75%
Bone Marrow Blast (%) ([1]; day 29 on study drug, 100 mg, decreased to 80 mg, oral three times daily): 0%
Bone Marrow Blast (%) ([1]; day 57 on study drug, 100 mg, decreased to 80 mg, oral three times daily): 1%
Days of therapy to complete clearance of malignant leukemic blasts in peripheral blood ([2]; 80 mg oral three times daily): 14 days
Bone Marrow Blast (%) ([2]; day 0 on study drug (baseline)): 91%
Absolute Peripheral Blast Count (units/uL) ([2]; day 1 on study drug (baseline value), 80 mg oral three times daily): 4800 units/uL
Absolute Peripheral Blast Count (units/uL) ([2]; day 3 on study drug, 80 mg oral three times daily): 2747 units/uL
Absolute Peripheral Blast Count (units/uL) ([2]; day 4 on study drug, 80 mg oral three times daily): 250 units/uL
Absolute Peripheral Blast Count (units/uL) ([2]; day 7 on study drug, 80 mg oral three times daily): 49 units/uL
Absolute Peripheral Blast Count (units/uL) ([2]; day 9 on study drug, 80 mg oral three times daily): 35 units/uL
Absolute Peripheral Blast Count (units/uL) ([2]; day 14 on study drug, 80 mg oral three times daily): 0 units/uL
Absolute Peripheral Blast Count (units/uL) [2, 6]: 0 units/uL
Bone Marrow Blast (%) [2, 6]: 32%
Absolute Peripheral Blast Count (units/uL) ([2]; day 28 on study drug, 80 mg oral three times daily): 0 units/uL
Bone Marrow Blast (%) ([2]; day 35 on study drug, 80 mg oral three times daily): 2%
Absolute Peripheral Blast Count (units/uL) ([2]; day 37 on study drug, 80 mg oral three times daily): 0 units/uL
Absolute Peripheral Blast Count (units/uL) ([2]; day 38 on study drug, 80 mg oral three times daily): 0 units/uL
Absolute Peripheral Blast Count (units/uL) ([2]; day 39 on study drug, 80 mg oral three times daily): 0 units/uL
Absolute Peripheral Blast Count (units/uL) ([2]; day 40 on study drug, 80 mg oral three times daily): 0 units/uL
Absolute Peripheral Blast Count (units/uL) ([2]; day 41 on study drug, 80 mg oral three times daily): 0 units/uL
Absolute Peripheral Blast Count (units/uL) ([2]; day 42 on study drug, 80 mg oral three times daily): 0 units/uL
Absolute Peripheral Blast Count (units/uL) ([2]; day 43 on study drug, 80 mg oral three times daily): 0 units/uL
Absolute Peripheral Blast Count (units/uL) ([2]; day 45 on study drug, 80 mg oral three times daily): 0 units/uL
Absolute Peripheral Blast Count (units/uL) ([2]; day 46 on study drug, 80 mg oral three times daily): 0 units/uL
Absolute Peripheral Blast Count (units/uL) ([2]; day 47 on study drug, 80 mg oral three times daily): 0 units/uL
Absolute Peripheral Blast Count (units/uL) ([2]; day 48 on study drug, 80 mg oral three times daily): 0 units/uL
Absolute Peripheral Blast Count (units/uL) ([2]; day 49 on study drug, 80 mg oral three times daily): 0 units/uL
Absolute Peripheral Blast Count (units/uL) ([2]; day 50 on study drug, 80 mg oral three times daily): 0 units/uL
Absolute Peripheral Blast Count (units/uL) ([2]; day 51 on study drug, 80 mg oral three times daily): 0 units/uL
Absolute Peripheral Blast Count (units/uL) ([2]; day 52 on study drug, 80 mg oral three times daily): 0 units/uL
Bone Marrow Blast (%) ([2]; day 65 on study drug, 80 mg oral three times daily): 4-5%
Absolute Peripheral Blast Count (units/uL) ([2]; day 69 on study drug, 80 mg oral three times daily): 0 units/uL
Clinical response (bone marrow biopsy) ([2]; over the course of 65 days of therapy, 80 mg oral three times daily): complete remission with incomplete blood count recovery (CRi)
Days of therapy to complete clearance of malignant leukemic blasts in peripheral blood ([3]; 100 mg three times daily): 15 days
Clinical response (bone marrow biopsy) ([3]; after 33 days of therapy, 100 mg three times daily): complete remission with incomplete blood count recovery (CRi)
Absolute Peripheral Blast Count (units/uL) ([3]; day 0 on study drug (baseline)): 196 units/uL
Bone Marrow Blast (%) ([3]; day 0 on study drug (baseline)): 60-70%
Absolute Peripheral Blast Count (units/uL) ([3]; day 14 on study drug, 100 mg three times daily): 14 units/uL
Absolute Peripheral Blast Count (units/uL) [3, 7]: 0 units/uL
Absolute Peripheral Blast Count (units/uL) ([3]; day 16 on study drug, 100 mg three times daily): 0 units/uL
Absolute Peripheral Blast Count (units/uL) ([3]; day 17 on study drug, 100 mg three times daily): 0 units/uL
Absolute Peripheral Blast Count (units/uL) ([3]; day 18 on study drug, 100 mg three times daily): 0 units/uL
Bone Marrow Blast (%) ([3]; day 27 on study drug, 100 mg three times daily): 10%
Absolute Peripheral Blast Count (units/uL) ([3]; day 28 on study drug, 100 mg three times daily): 0 units/uL
Absolute Peripheral Blast Count (units/uL) [3, 8]: 0 units/uL
Absolute Peripheral Blast Count (units/uL) ([3]; day 31 on study drug, 100 mg three times daily): 0 units/uL
Absolute Peripheral Blast Count (units/uL) ([3]; day 32 on study drug, 100 mg three times daily): 0 units/uL
Absolute Peripheral Blast Count (units/uL) [3, 9]: 0 units/uL
Bone Marrow Blast (%) [3, 9]: 5%
Absolute Peripheral Blast Count (units/uL) ([3]; day 39 on study drug, 100 mg three times daily): 0 units/uL
Absolute Peripheral Blast Count (units/uL) ([3]; day 42 on study drug, 100 mg three times daily): 0 units/uL
Absolute Peripheral Blast Count (units/uL) ([3]; day 44 on study drug, 100 mg three times daily): 0 units/uL
Absolute Peripheral Blast Count (units/uL) ([3]; day 45 on study drug, 100 mg three times daily): 0 units/uL
Absolute Peripheral Blast Count (units/uL) ([3]; day 46 on study drug, 100 mg three times daily): 0 units/uL
Absolute Peripheral Blast Count (units/uL) ([3]; day 47 on study drug, 100 mg three times daily): 0 units/uL
Absolute Peripheral Blast Count (units/uL) ([3]; day 48 on study drug, 100 mg three times daily): 0 units/uL
Absolute Peripheral Blast Count (units/uL) ([3]; day 49 on study drug, 100 mg three times daily): 0 units/uL
Absolute Peripheral Blast Count (units/uL) ([3]; day 50 on study drug, 100 mg three times daily): 0 units/uL
Absolute Peripheral Blast Count (units/uL) ([3]; day 51 on study drug, 100 mg three times daily): 0 units/uL
Absolute Peripheral Blast Count (units/uL) ([3]; day 52 on study drug, 100 mg three times daily): 0 units/uL
Days of therapy to complete clearance of malignant leukemic blasts in peripheral blood ([4]; 100 mg three times daily): 15 days
Clinical response (bone marrow biopsy) ([4]; after 29 days of therapy, 100 mg three times daily): complete remission with incomplete blood count recovery (CRi)
Absolute Peripheral Blast Count (cells/uL) ([4]; day 0 on study drug (baseline)): 198 cells/uL
Bone Marrow Blast (%) ([4]; day 0 on study drug (baseline)): 76%
Absolute Peripheral Blast Count (cells/uL) ([4]; day 1 on study drug, 100 mg three times daily): 130 cells/uL
Absolute Peripheral Blast Count (cells/uL) ([4]; day 8 on study drug, 100 mg three times daily): 19 cells/uL
Absolute Peripheral Blast Count (cells/uL) [4, 7]: 0 cells/uL
Absolute Peripheral Blast Count (cells/uL) ([4]; day 22 on study drug, 100 mg three times daily): 0 cells/uL
Absolute Peripheral Blast Count (cells/uL) [4, 8]: 0 cells/uL
Bone Marrow Blast (%) [4, 8]: 1%
Absolute Peripheral Blast Count (cells/uL) [4, 10]: 0 cells/uL
Bone Marrow Blast (%) [4, 10]: 1%

CNC(=O)c1cc(Oc2ccc(NC(=O)Nc3ccc(Cl)c(C(F)(F)F)c3)cc2)ccn1 [sorafenib]
Effect on bone marrow (BM) blasts [5]: only modest BM blast reductions
Effect on peripheral blood (PB) blasts [5]: effective in clearing PB blasts
